Legend:
[1] = system: NF639 cells; assay: Expression of EMT-related genes by qPCR after TGF-β; format: cell-based, mouse; conditions: various concentrations of TGF-β, 48 h
Procedure: RNA extraction and qRT-PCR. RNA was extracted using the TRIzol reagent (Invitrogen). 20% chloroform was added to each sample, vortexed briefly, and incubated at room temperature for 15 min. Samples were then centrifuged at high speed at 4° C. for 15 min. The aqueous phase was moved to a new tube and an equal volume of isopropanol was added. Samples were incubated at room temperature for 10 min, followed by centrifugation at high speed at 4° C. for 10 min. Pellets were washed in 95% ethanol, dried, and resuspended in nuclease-free water. cDNA was synthesized using iScript™ cDNA Synthesis Kit according to the manufacturer's instructions (Bio-Rad). qRT-PCR was performed with IQ™ SYBR® Green Supermix (Bio-Rad) in a CFX Connect Real-Time PCR Detection System (Bio-Rad).
The potential link between epithelial-mesenchymal transition (EMT) and ferroptosis was examined using cells generated from mammary tumors of MMTV-neu mice. NF639 cells, derived from mouse mammary tumors containing MMTV-neu, were treated with various concentrations of TGF-β for 48 h to induce EMT. TGF-β can enhance EMT in cells bearing overactive HER2/neu signaling. Expression of a panel of EMT-related genes was assayed by qPCR as indicated.

[2] = system: NF639 cells; assay: Cystine deprivation-induced ferroptosis after TGF-β; format: cell-based, mouse; conditions: 6 ng/μL TGF-β 48 h; 3.2×10^5 cells/3.5 cm^2 well; cystine-free 12 h; untreated cells highly resistant
Procedure: To determine the effect of TGF-β on cystine deprivation induced ferroptosis, NF639 cells were treated with or without 6 ng/μL TGF-β for 48 h, at which point they were plated at low density (0.8 cells×10^5/3.5 cm^2 well), grown overnight, and treated with media containing or lacking cystine, or lacking cystine with 1 μM ferrostatin-1 for 12 h. NF639 cells were also plated at a high density of 3.2×10^5 cells/3.5 cm^2 well, grown overnight and treated with media containing or lacking cystine, or lacking cystine with 1 μM ferrostatin-1 for 12 h. Cell death was measured by Sytox green staining coupled with flow cytometry.

[3] = system: HCT116 cells; assay: Cell density-dependent induction of ferroptosis in HCT116 cells (cell death and lipid ROS by flow cytometry); format: cell-based, human; conditions: 5 μM RSL3; different cell density; cell death 24 h, lipid ROS 16 h
Procedure: Induction and inhibition of ferroptosis. To induce ferroptosis, cells with different density were seeded in 6-well plates. For cystine-starvation experiments, cells were washed with PBS twice and then cultured in cystine-free medium in the presence of 10% (v/v) dialyzed FBS for the indicated time. The ferroptosis inducing compounds erastin and RSL3 and the ferroptosis inhibitor Ferrostatin-1 were purchased from Sigma-Aldrich (St. Louis, Mo., USA).
Measurement of cell death, cell viability and lipid peroxidation. Cell death was analyzed by propidium iodide (Invitrogen, Waltham, Mass., USA) or SYTOX Green (Invitrogen) staining followed by microscopy or flow cytometry. For 3D spheroids, cell viability was determined using the CellTiter-Glo® 3D Cell Viability Assay (Promega, Madison, Wis., USA) according to the manufacturer's instructions. Viability was calculated by normalizing ATP levels to spheroids treated with normal full media. […]
To test erastin-induced ferroptosis, HCT116 cells with different cell density were treated with 30 μM erastin and quantification of cell death by propidium iodide (PI) staining followed by flow cytometry (after 30 h of erastin treatment). Lipid ROS production was assessed by C11-BODIPY staining followed by flow cytometry (after 24 h of erastin treatment). […]

[4] = system: HCT116 cells; assay: Ferroptosis in confluent HCT116 cells expressing shEcad, shMerlin or shLats1/2; format: cell-based, human; conditions: cell death 18 h, lipid ROS 14 h; versus shNT
Procedure: (§1) Measurement of cell death, cell viability and lipid peroxidation. Cell death was analyzed by propidium iodide (Invitrogen, Waltham, Mass., USA) or SYTOX Green (Invitrogen) staining followed by microscopy or flow cytometry. For 3D spheroids, cell viability was determined using the CellTiter-Glo® 3D Cell Viability Assay (Promega, Madison, Wis., USA) according to the manufacturer's instructions. Viability was calculated by normalizing ATP levels to spheroids treated with normal full media. To analyze lipid peroxidation, cells were stained with 5 μM BODIPY-C11 (Invitrogen) for 30 minutes at 37° C. followed by flow cytometric analysis.
The involvement of the Hippo signaling in the regulation of ferroptosis by cell-cell contact was also assessed. Cells depleted of Ecad, Merlin, or Lats were generated using shRNA technology. HCT116 cells were infected by lentiviruses expressing shRNA sequences targeting Ecad (shEcad), Merlin (shMerlin), or Lats1/2 (shLats1/2), as indicated. Knockdown efficiency was confirmed by Western blot (FIG. 2B). […] Cell death was measured at 30 h using SYTOX Green staining followed by flow cytometry. Lipid ROS was measured at 24 hours using C11-BODIPY staining coupled with flow cytometry. […] Cell death was measured at 18 h and lipid ROS was measured at 14 h (FIG. 11A).

[5] = system: MSTO-211H cells; assay: Ferroptosis in confluent MSTO-211H cells (shMerlin, shNcad); format: cell-based, human
Procedure: as §1
To confirm the ferroptosis-regulating role of Merlin in mesothelioma cells, the effect of Merlin knockdown on ferroptosis sensitivity was assessed. MSTO-211H cells were infected with lentiviruses expressing shMerlin. RNAi knockdown efficiency was confirmed by Western blot (FIG. 3F). Then, shNT or shMerlin MSTO-211H cells were cultured to high confluence, at which point they were treated with media containing or lacking cystine, with or without Fer-1 for 24 h. Cell death was measured by SYTOX Green staining followed by flow cytometry (FIG. 3G). To measure lipid reactive species, shNT or shMerlin MSTO-211H cells were treated for 18 h, at which point they were stained with 2 μM C11-BODIPY for lipid ROS measurement (FIG. 311). Confluent MSTO-211H cells expressing shNT or shMerlin were also treated with 1 μM RSL3 with or without […] Fer-1. Cell death (left, 24 h after treatment) and lipid ROS production (right, 16 h) were measured (FIG. 13B).
Therefore, the cell density dependence of ferroptosis is not limited to epithelial cells expressing Ecad. […] To assess the expression of N-cadherin in MSTO-211H mesothelioma cells, the cells were cultivated at different cell densities, and the levels of Ncad, p-YAP and total YAP were analyzed by Western blot. […] Therefore, the potential role of Ncad in ferroptosis was tested. MSTO-211H cells were infected with lentiviruses expressing Ncad shRNA (shNcad) and selected with puromycin.

[6] = system: MEFs; assay: Ferroptosis and lipid ROS in MEFs; format: cell-based, mouse
Procedure: as §1
Merlin-regulated ferroptosis in cell density dependent manner was also observed in MEFs, which are not of epithelial origin. Cell death of MEFs with different cell density induced by cystine starvation for 12 h was measured by PI staining (FIG. 15A), and flow cytometry (FIG. 15B). The effect of cystine starvation on lipid ROS production in MEFs cells with different cell density (6 h treatment) is also shown in FIG. 15B. […] As shown in FIGS. 15A-15D, increased cell density mitigated both cell death and lipid ROS generation induced by cystine starvation, erastin and RSL3 in MEFs.
MEFs also regulated the activity of YAP at high density in a Merlin-dependent manner. MEFs seeded at increasing density were probed for YAP localization by Immunofluorescence (FIG. 15E). The effect of Merlin was assessed by infecting MEFs with shMerlin lentivirus and selected with puromycin. […] As shown in FIGS. 15E-15F, with increasing cell confluence, there was an increase of YAP nuclear exclusion in MEFs, which was attenuated by Merlin knockdown.

[7] = system: HCT116 cells; assay: RSL3-induced cell death in HCT116 cells overexpressing TFRC and/or ACSL4; format: cell-based, human; conditions: 2 μM RSL3, 24 h; SYTOX Green
Procedure: To test whether TFRC and ACSL4 can directly enhance ferroptosis in confluent cells, TFRC and ACSL4 separately or in combination were overexpressed. HCT116 cells were transduced with retroviral particles containing mCherry-ACSL4, transfected with TFRC, or both. Expression was assayed by Western blot. Two bands were detected for mCherry-ACSL4, representing the full-length mCherry-ACSL4 and that with mCherry tag truncated (FIG. 17A). Additionally, cells were plated at the indicated density and treated with 2 μM RSL3 for 24 h. Cell death was measured by SYTOX Green staining coupled with flow cytometry.

[8] = system: HCT116 cells; assay: Ferroptosis in HCT116 cells expressing PAK-CAAX; format: cell-based, human; conditions: constitutively active PAK-CAAX versus inactive PAK^K298R-CAAX

| Compound | expression of EMT-related genes [1] | cell death under cystine starvation at high cell density [2] | RSL3-induced ferroptosis (cell death, lipid ROS) [3] | RSL3-induced cell death and lipid ROS after knockdown of Ecad, Merlin, Lats1/2 [4] | sensitivity of confluent shNcad cells to RSL3 (cell death) ([5]; 1 μM RSL3, 16 h) | sensitivity of confluent shMerlin cells to RSL3 (cell death, lipid ROS) ([5]; 1 μM RSL3, cell death 24 h, lipid ROS 16 h) | RSL3-induced ferroptosis and lipid ROS in MEFs at different densities ([6]; 1 μM RSL3, ferroptosis 8 h, lipid ROS 5 h) | RSL3-induced cell death and lipid ROS in confluent Merlin RNAi MEFs ([6]; RSL3 1 μM, 8 h) | RSL3-induced cell death, confluent cells co-expressing TFRC and ACSL4 [7] | RSL3-induced cell death, confluent cells expressing either TFRC or ACSL4 [7] | RSL3-induced ferroptosis in PAK-CAAX expressing cells [8] |
| --- | --- | --- | --- | --- | --- | --- | --- | --- | --- | --- | --- |
| TGF-β | upregulated the expression of multiple EMT-related genes | died under cystine starvation at high cell density | – | – | – | – | – | – | – | – | – |
| COC(=O)c1ccc([C@@H]2c3[nH]c4ccccc4c3C[C@@H](C(=O)OC)N2C(=O)CCl)cc1 [RSL3] | – | – | induces HCT116 human colon cancer cells to undergo ferroptosis in a cell density-dependent manner | sensitized HCT116 cells to ferroptosis and increased lipid ROS accumulation | sensitized these cells to ferroptosis | became sensitive | ferroptosis (8 h) and lipid ROS production (5 h) was also observed | increased cell death and lipid ROS production | further enhanced cell death | partially sensitized to ferroptosis | enhanced RSL3-induced ferroptosis |

— patent US20220249484A1, “METHODS FOR PREDICTING RESPONSIVENESS OF CANCER TO FERROPTOSIS-INDUCING THERAPIES” (Memorial Sloan Kettering Cancer Center, priority 2019, published 2022)
